Literature values, collected in patent publication US12492208B2, “Crystal of pyrimidine compound” (TAIHO PHARMACEUTICAL CO., LTD., priority 2020, dated 2025).

Experiments:
[1] = non-clinical tests; substrates of p-gp or Bcrp; cited from earlier work
brain metastatic cancer = details: clinical tests; cited from earlier work

Structure (SMILES): CCOc1cc2ncc(C#N)c(Nc3ccc(OCc4ccccn4)c(Cl)c3)c2cc1NC(=O)/C=C/CN(C)C [Neratinib]
- brain penetration properties [1]: limited
- effects against brain metastatic cancer (brain metastatic cancer): sufficient effects of these agents could not be obtained
